According to patent US9421157B2, “Use of C-glycoside derivatives as pro-desquamating active agents” (L'OREAL, priority 2006, dated 2016):

Tested on: corneodesmosine
Test: Desquamating activity: immunodetection of corneodesmosine on varnish strippings of dry skin after incubation with product
Format: biochemical
Conditions: 7% by weight in Arlacel/Myrj base, 5 days at 37° C., 70% relative humidity
Method: In this test, corneodesmosine is sought by immunodetection after incubation. Corneodesmosine is one of the key markers of desquamation of […]. It is studied on an immunoblot after electrophoresis separation and transfer onto a membrane.
3×3.5 cm rectangles are cut out of varnish strippings performed on the calf area of legs bearing dry skin. They are each treated with 42 mg of product (4 mg/cm^2). Controls and tests are performed in parallel. A blank without product is prepared under the same conditions.
The tests are incubated at 37° C. and 70% relative humidity for 5 days. The controls are stored for 5 days at −20° C. Thus, 5 tests and 5 controls are obtained.
For each of the samples, acetone powders are prepared and weighed out. The proteins are extracted with 100 μl/mg of whole Laemmli buffer. They are assayed according to the Bradford method. The protein content of each sample is adjusted and allows a direct comparison of the various samples. The proteins are separated by SDS-Page electrophoresis on 12% acrylamide gel.
After transferring the proteins onto a PVDF membrane, the immunodetection is performed with the anticorneodesmosine antibody G3619 (Guy Serre) at 1/12500 according to a standard western blot technique. Revelation is performed by chemiluminescence. The bands detected by the Fluor Smax machine (Biorad) are quantified with the quantity-one software (Biorad).

Compound | degradation of corneodesmosine (result in words)
CC(O)C[C@@H]1OC[C@@H](O)[C@H](O)[C@H]1O (stereo partly drawn) [C-β-D-xylopyranoside-2-hydroxypropane] | positive effect
OCC(O)CO [Glycerol] | substantial degradation of corneodesmosine
